Results: patent US20140121231A1, “PYRANOPYRIDONE INHIBITORS OF TANKYRASE” (Hoffmann-La Roche, Inc., priority 2012, published 2014)

Experiments:
Tankyrase 1 (TNKS1) = molecular target: T1, Tankyrase 1 (TNKS1) (Homo sapiens, UniProt O95271); assay: μHTS-TNKS-IWR2 TR-FRET Binding Assay (Example 71), TNKS1
T1 construct: His6-TNKS1, MW=28.2 KDa (construct: 1088-1327, 1266M)
Method: (§1) μHTS-TNKS-IWR2 TR-FRET Binding Assay (10 μL/well in BD1536-well plate, a single point)
(§2) Assay buffer 1a (AB1a) for TNKS dilution: 50 mM Tris, pH 7.4, 100 mM sodium chloride solution, 1 mM magnesium chloride solution, 1 mM DL-dithiothreitol solution, 0.2 mg/mL bovine serum albumin solution, 0.025% NP-40. Assay buffer 1b (AB 1b) for Biotin-IWR2 dilution: 50 mM Tris, pH 7.4, 100 mM sodium chloride solution, 1 mM magnesium chloride solution, 1 mM DL-dithiothreitol solution, 0.2 mg/mL bovine serum albumin solution, 0.05% NP-40 Assay buffer 1c (AB 1c) for compound dilution: 50 mM Tris, pH 7.4, 100 mM sodium chloride solution, 1 mM magnesium chloride solution, 1 mM DL-dithiothreitol solution, 0.2 mg/mL bovine serum albumin solution Assay buffer 2 (AB2) for Eu/APC: 50 mM Tris, pH 7.4, 100 mM sodium chloride solution, 1 mM magnesium chloride solution, 0.2 mg/mL bovine serum albumin solution
(§3) Transfer 3 μL/well of above solution (solution 1,2,3) to an empty assay plate (BD1536-well plate) as follows: TOTAL and cpd wells: Solution 1 (Biotin-IWR2): BLANK wells: Solution 2 (No Biotin-IWR2): POSITIVE CONTROL wells: Solution 3 (Biotin-IWR2XAV939) Transfer 3 μL/well of the above diluted compound solutions or compound dilution buffer to the above assay plate. Add 2 μL/well of 300 nM TNKS stock solution (4) to every well in the above assay plate. Centrifuge the assay plate at 2100 rpm for 2 min. Incubate the assay plate at 26° C. for 30 minutes. Add 2 μL/well 3.5 nMEu/50 nM APC solution (5) to every well in the above assay plate. Centrifuge the assay plate at 2100 rpm for 2 min. Incubate the assay plate at 26° C. for 60 min.

tankyrase 2 (His6-TNKS2) = molecular target: T2, tankyrase 2 (His6-TNKS2) (Homo sapiens, UniProt Q9H2K2); assay: μHTS-TNKS-IWR2 TR-FRET Binding Assay (Example 71), TNKS2; conditions: footnote 1: Tankyrase 1 and 2 inhibition assay in Example 71 (TR-FRET)
T2 construct: His6-tankyrase 2 (construct: 934-1166) (His6-TNKS2)
Method: as §1
Biotin-4-((1S,2R,6S,7R)-3,5-Dioxo-4-aza-tricyclo[5.2.1.0*2,6*]dec-8-en-4-yl)-N-(4-methyl-quinolin-8-yl)-benzamide (Biotin-IWR2): 10 mM Biotin-IWR2 stock in DMSO, stored at −20° C. Positive control: 10 mM 2-(4-Trifluoromethyl-phenyl)-3,5,7,8-tetrahydro-thiopyrano[4,3-d]pyrimidin-4-one (XAV939) in DMSO, stored at −20° C.
as §2, §3

[1] = molecular target: T3, PARP1 (His6-PARP1, full length) (Homo sapiens, UniProt P09874); assay: TR-FRET Binding Assay (Example 71), PARP1; conditions: TR-FRET assay of Example 71 with His6-PARP1
T3 construct: His6-PARP1 (full length) can be substituted for His6-TNKS 1
Method: as §1
Tankyrase 1 (TNKS1): 184.3 μM=5.2 mg/mL His6-TNKS1, MW=28.2 KDa (construct: 1088-1327, 1266M) in 20 mM Tris pH 8, 150 mM NaCl, 10% glycerol, and 0.5 mM TCEP. Alternatively, His6-tankyrase 2 (construct: 934-1166) (His6-TNKS2) or His6-PARP1 (full length) can be substituted for His6-TNKS 1.
as §2
Prepare Biotinylated IWR2 stock solution (3.33× stock) for TOTL and compound wells: 200 nM Biotin-IWR2 in 5% DMSO/AB1b buffer
Prepare BLANK well stock solution: 5% DMSO/AB1b buffer Prepare POSITIVE CONTROL well stock solution (3.33× stock): 200 nM XAV939 in 200 nM Biotin-IWR2/5% DMSO/AB1b buffer Prepare TNKS1 stock solution (5× stock): 300 nM TNKS in AB1a buffer. (Alternatively, use TNKS2 or PARP1 stock solutions.) Prepare Eu/APC stock solution (5× stock): 3.5 nM Eu-SA/50 nM APC-His6Ab in AB2 buffer.
Add 25 μL/well 1.5% DMSO/AB1c buffer in each compound well to the compound concentration at 74 μM in 8.8% DMSO/AB1c buffer or in the 2 μL DMSO CONTROL wells (BLANK, TOTAL and POSITIVE wells) in the compound plate. Transfer 3 μL/well of above solution (solution 1,2,3) to an empty assay plate (BD1536-well plate) as follows: TOTAL and cpd wells: Solution 1 (Biotin-IWR2): BLANK wells: Solution 2 (No Biotin-IWR2): POSITIVE CONTROL wells: Solution 3 (Biotin-IWR2XAV939) Transfer 3 μL/well of the above diluted compound solutions or compound dilution buffer to the above assay plate. Add 2 μL/well of 300 nM TNKS stock solution (4) to every well in the above assay plate. Centrifuge the assay plate at 2100 rpm for 2 min. Incubate the assay plate at 26° C. for 30 minutes. Add 2 μL/well 3.5 nMEu/50 nM APC solution (5) to every well in the above assay plate. Centrifuge the assay plate at 2100 rpm for 2 min. Incubate the assay plate at 26° C. for 60 min. Read the assay plate immediately at excitation wavelength of 330 nm and emission wavelength of […] in time resolved fluorescence mode.
. Representative compound data for the PARP1 assay is in TABLE 2 (below) Values are in μM.

T2 sequence (Q9H2K2 934-1166): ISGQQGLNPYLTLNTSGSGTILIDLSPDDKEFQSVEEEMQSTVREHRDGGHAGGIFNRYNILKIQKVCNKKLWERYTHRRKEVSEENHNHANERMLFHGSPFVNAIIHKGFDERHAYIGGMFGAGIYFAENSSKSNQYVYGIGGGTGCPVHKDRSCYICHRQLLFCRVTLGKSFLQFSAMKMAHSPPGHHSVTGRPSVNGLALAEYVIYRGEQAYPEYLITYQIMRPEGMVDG
T1 sequence (O95271 1088-1327): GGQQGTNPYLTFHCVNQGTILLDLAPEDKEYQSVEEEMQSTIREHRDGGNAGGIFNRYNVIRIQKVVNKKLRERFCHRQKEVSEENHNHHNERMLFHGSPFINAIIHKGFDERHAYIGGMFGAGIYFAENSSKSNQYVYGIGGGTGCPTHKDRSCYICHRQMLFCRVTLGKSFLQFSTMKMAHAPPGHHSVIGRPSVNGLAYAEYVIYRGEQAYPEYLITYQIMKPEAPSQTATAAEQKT
T3 sequence (P09874 whole entry, species assumed): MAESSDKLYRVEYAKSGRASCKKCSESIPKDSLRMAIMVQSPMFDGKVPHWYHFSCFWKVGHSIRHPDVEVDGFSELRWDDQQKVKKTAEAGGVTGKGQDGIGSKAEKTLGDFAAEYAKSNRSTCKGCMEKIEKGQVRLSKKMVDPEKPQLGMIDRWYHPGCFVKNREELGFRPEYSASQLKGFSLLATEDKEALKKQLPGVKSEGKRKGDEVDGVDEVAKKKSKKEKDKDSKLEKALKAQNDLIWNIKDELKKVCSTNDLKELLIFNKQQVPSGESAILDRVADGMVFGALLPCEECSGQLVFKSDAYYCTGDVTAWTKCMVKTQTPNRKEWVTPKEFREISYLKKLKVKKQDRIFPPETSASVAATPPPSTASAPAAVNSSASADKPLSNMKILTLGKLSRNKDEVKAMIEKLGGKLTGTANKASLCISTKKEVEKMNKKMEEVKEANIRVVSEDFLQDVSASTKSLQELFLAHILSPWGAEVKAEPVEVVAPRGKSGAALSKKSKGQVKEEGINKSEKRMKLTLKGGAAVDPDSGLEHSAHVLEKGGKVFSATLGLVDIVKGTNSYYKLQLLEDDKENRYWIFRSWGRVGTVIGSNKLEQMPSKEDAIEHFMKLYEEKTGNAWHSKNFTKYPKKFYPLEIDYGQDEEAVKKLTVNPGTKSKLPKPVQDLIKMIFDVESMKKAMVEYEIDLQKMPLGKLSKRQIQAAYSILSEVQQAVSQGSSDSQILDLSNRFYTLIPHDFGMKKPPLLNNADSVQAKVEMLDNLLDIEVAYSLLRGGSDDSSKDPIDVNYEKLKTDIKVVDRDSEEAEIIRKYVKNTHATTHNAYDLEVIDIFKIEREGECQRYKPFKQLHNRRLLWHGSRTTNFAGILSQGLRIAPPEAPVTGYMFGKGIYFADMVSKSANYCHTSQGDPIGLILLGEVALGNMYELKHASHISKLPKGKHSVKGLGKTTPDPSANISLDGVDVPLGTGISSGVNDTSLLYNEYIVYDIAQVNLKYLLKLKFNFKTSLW

SMILES: CC(C)(C)OC(=O)N1CCC(C2Cc3[nH]c(=O)c4ccccc4c3CO2)CC1 (racemic) [Compound I-21, rac-4-(9-Oxo-1,4,9,10-tetrahydro-2H-3-oxa-10-aza-phenanthren-2-yl)-piperidine-1-carboxylic acid tert-butyl ester]
- IC50 (Tankyrase 1 (TNKS1)): 33.5 nM
- IC50 (tankyrase 2 (His6-TNKS2)): 46.7 nM
- IC50 [1]: 15.9 nM

SMILES: O=c1[nH]c2c(c3ccccc13)CO[C@H](C1CCCC1)C2 (single isomer, unassigned) [Compound I-11]
- IC50 (Tankyrase 1 (TNKS1)): 31.5 nM
- IC50 (tankyrase 2 (His6-TNKS2)): 102 nM
- IC50 [1]: 37.1 nM

SMILES: O=c1[nH]c2c(c3ccccc13)COC(C1CCOC1)C2 (mixture of isomers) [Compound I-59, 2-(Tetrahydro-furan-3-yl)-1,2,4,10-tetrahydro-3-oxa-10-aza-phenanthren-9-one]
- IC50 (Tankyrase 1 (TNKS1)): 33.6 nM
- IC50 (tankyrase 2 (His6-TNKS2)): 34.4 nM
- IC50 [1]: 280 nM

SMILES: O=c1[nH]c2c(c3ccccc13)COC1(CCCC1)C2 [Compound I-9, 1,5′-Dihydrospiro[cyclopentane-1,3′-pyrano[4,3-c]isoquinolin]-6′(4′H)-one]
- IC50 (Tankyrase 1 (TNKS1)): 72.9 nM
- IC50 (tankyrase 2 (His6-TNKS2)): 144 nM
- IC50 [1]: 2270 nM

SMILES: COC(=O)c1ccc2c(=O)[nH]c3c(c2c1)COC(C(C)C)C3 (racemic) [Compound I-19, rac-2-Isopropyl-9-oxo-1,4,9,10-tetrahydro-2H-3-oxa-10-aza-phenanthrene-6-carboxylic acid methyl ester]
- IC50 (Tankyrase 1 (TNKS1)): 84.1 nM
- IC50 (tankyrase 2 (His6-TNKS2)): 386 nM
- IC50 [1]: 73.5 nM

SMILES: O=c1[nH]c2c(c3ccccc13)COCC2 [Compound I-3, 1,2,4,10-Tetrahydro-3-oxa-10-aza-phenanthren-9-one]
- IC50 (Tankyrase 1 (TNKS1)): 421 nM
- IC50 (tankyrase 2 (His6-TNKS2)): 636 nM
- IC50 [1]: 281 nM

SMILES: CC(C)(C)C1Cc2[nH]c(=O)c3cccnc3c2CO1 (racemic) [Compound I-48, rac-2-tert-Butyl-1,2,4,10-tetrahydro-3-oxa-5,10-diaza-phenanthren-9-one]
- IC50 (Tankyrase 1 (TNKS1)): 34.6 nM
- IC50 (tankyrase 2 (His6-TNKS2)): 55.4 nM
- IC50 [1]: 437 nM

SMILES: CC(C)(C)C1Cc2[nH]c(=O)c3ccc(C#N)cc3c2CO1 (racemic) [Compound I-56, rac-2-tert-Butyl-9-oxo-1,4,9,10-tetrahydro-2H-3-oxa-10-aza-phenanthrene-6-carbonitrile]
- IC50 (Tankyrase 1 (TNKS1)): 133 nM
- IC50 (tankyrase 2 (His6-TNKS2)): 1500 nM
- IC50 [1]: > 50000 nM

SMILES: O=c1[nH]c2c(c3cnccc13)COC(C1CCCC1)C2 (racemic) [Compound I-31, rac-7-Cyclopentyl-5,7,8,9-tetrahydro-6-oxa-3,9-diaza-phenanthren-10-one]
- IC50 (Tankyrase 1 (TNKS1)): 70.8 nM
- IC50 (tankyrase 2 (His6-TNKS2)): 89.1 nM
- IC50 [1]: 1790 nM

SMILES: Cc1cccc2c(=O)[nH]c3c(c12)COC(C(C)(C)O)C3 (racemic) [Compound I-64, rac-2-(1-Hydroxy-1-methyl-ethyl)-5-methyl-1,2,4,10-tetrahydro-3-oxa-10-aza-phenanthren-9-one]
- IC50 (Tankyrase 1 (TNKS1)): 32 nM
- IC50 (tankyrase 2 (His6-TNKS2)): 36.7 nM
- IC50 [1]: 44.1 nM

SMILES: CC(=O)N1CCC(C2Cc3[nH]c(=O)c4ccccc4c3CO2)CC1 (racemic) [Compound I-25, rac-2-(1-Acetyl-piperidin-4-yl)-1,2,4,10-tetrahydro-3-oxa-10-aza-phenanthren-9-one]
- IC50 (Tankyrase 1 (TNKS1)): 25.5 nM
- IC50 (tankyrase 2 (His6-TNKS2)): 27 nM
- IC50 [1]: 67.7 nM

SMILES: O=c1[nH]c2c(c3ccccc13)COC(C1CCCC1)C2 (racemic) [Compound I-7, rac-2-Cyclopentyl-1,2,4,10-tetrahydro-3-oxa-10-aza-phenanthren-9-one]
- IC50 (Tankyrase 1 (TNKS1)): 34.2 nM
- IC50 (tankyrase 2 (His6-TNKS2)): 43 nM
- IC50 [1]: 119 nM

SMILES: Cc1cccc2c(=O)[nH]c3c(c12)COC(C(C)(C)C)C3 (racemic) [Compound I-41, rac-2-tert-Butyl-5-methyl-1,2,4,10-tetrahydro-3-oxa-10-aza-phenanthren-9-one]
- IC50 (Tankyrase 1 (TNKS1)): 21.2 nM
- IC50 (tankyrase 2 (His6-TNKS2)): 26 nM
- IC50 [1]: 46.9 nM

SMILES: Cn1ncc2c(=O)[nH]c3c(c21)COC(C(C)(C)C)C3 (racemic) [Compound I-42, rac-7-tert-Butyl-1-methyl-5,6,7,9-tetrahydro-1H-8-oxa-1,2,5-triaza-cyclopenta[a]naphthalen-4-one]
- IC50 (Tankyrase 1 (TNKS1)): 60.9 nM
- IC50 (tankyrase 2 (His6-TNKS2)): 87.7 nM
- IC50 [1]: 2100 nM

SMILES: O=C(C1CC1)N1CCC(C2Cc3[nH]c(=O)c4ccccc4c3CO2)CC1 (racemic) [Compound I-33, rac-2-(1-Cyclopropanecarbonyl-piperidin-4-yl)-1,2,4,10-tetrahydro-3-oxa-10-aza-phenanthren-9-one]
- IC50 (Tankyrase 1 (TNKS1)): 36.5 nM
- IC50 (tankyrase 2 (His6-TNKS2)): 52 nM
- IC50 [1]: 94.8 nM

SMILES: CC(C)(C)C1Cc2[nH]c(=O)c3sccc3c2CO1 (racemic) [Compound I-40, rac-7-tert-Butyl-5,6,7,9-tetrahydro-8-oxa-3-thia-5-aza-cyclopenta[a]naphthalen-4-one]
- IC50 (Tankyrase 1 (TNKS1)): 32.6 nM
- IC50 (tankyrase 2 (His6-TNKS2)): 35.5 nM
- IC50 [1]: 222 nM

SMILES: CC(C)(O)c1ccc2c(=O)[nH]c3c(c2c1)COC(C(C)(C)C)C3 (racemic) [Compound I-53, rac-2-tert-Butyl-6-(1-hydroxy-1-methyl-ethyl)-1,2,4,10-tetrahydro-3-oxa-10-aza-phenanthren-9-one]
- IC50 (Tankyrase 1 (TNKS1)): 1100 nM
- IC50 (tankyrase 2 (His6-TNKS2)): 13900 nM
- IC50 [1]: > 50000 nM

SMILES: CC1(C2Cc3[nH]c(=O)c4ccccc4c3CO2)COC1 (racemic) [Compound I-65, rac-2-(3-Methyl-oxetan-3-yl)-1,2,4,10-tetrahydro-3-oxa-10-aza-phenanthren-9-one]
- IC50 (Tankyrase 1 (TNKS1)): 81.4 nM
- IC50 (tankyrase 2 (His6-TNKS2)): 101 nM
- IC50 [1]: 43 nM

SMILES: CC(C)C1Cc2[nH]c(=O)c3ccc(C4CC4)cc3c2CO1 (racemic) [Compound I-38, rac-6-Cyclopropyl-2-isopropyl-1,2,4,10-tetrahydro-3-oxa-10-aza-phenanthren-9-one]
- IC50 (Tankyrase 1 (TNKS1)): 91 nM
- IC50 (tankyrase 2 (His6-TNKS2)): 196 nM
- IC50 [1]: 18700 nM

SMILES: CS(=O)(=O)N1CCC(C2Cc3[nH]c(=O)c4ccccc4c3CO2)CC1 (racemic) [Compound I-26, rac-2-(1-Methanesulfonyl-piperidin-4-yl)-1,2,4,10-tetrahydro-3-oxa-10-aza-phenanthren-9-one]
- IC50 (Tankyrase 1 (TNKS1)): 48.2 nM
- IC50 (tankyrase 2 (His6-TNKS2)): 55.4 nM
- IC50 [1]: 98.7 nM

SMILES: CC(C)C1Cc2[nH]c(=O)c3ccoc3c2CO1 (racemic) [Compound I-10, rac-7-Isopropyl-5,6,7,9-tetrahydro-1,8-dioxa-5-aza-cyclopenta[a]naphthalen-4-one]
- IC50 (Tankyrase 1 (TNKS1)): 93.7 nM
- IC50 (tankyrase 2 (His6-TNKS2)): 231 nM
- IC50 [1]: 80.1 nM

SMILES: CC(C)(C)OC(=O)N1CCC([C@H]2Cc3[nH]c(=O)c4ccccc4c3CO2)CC1 (single isomer, unassigned) [Compound I-55]
- IC50 (Tankyrase 1 (TNKS1)): 43.2 nM
- IC50 (tankyrase 2 (His6-TNKS2)): 99.2 nM
- IC50 [1]: 125 nM
